The record followed here is patent US20140135310A1, “SULPHONAMIDE DERIVATIVES OF ALICYCLIC AMINES FOR THE TREATMENT OF CENTRAL NERVOUS SYSTEM DISEASES” (Adamed Sp. z o.o., priority 2011, published 2014).

In one assay the target is T1, 5-HT6 receptor (Homo sapiens, UniProt P50406).
T1 construct: purchased PerkinElmer
Put plainly: Radioligand binding assay, serotoninergic 5-HT6 receptors. Particulars: for inhibition at 1 µM: binding assay result in %, Table 5a; for Ki: read-out: Inhibition constants Ki, 5-HT6. In a few lines: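 Values are Ki from Cheng–Prusoff, taking IC50 from Hill nonlinear regression of competition curves and KD from a Scatchard plot. Specific binding was total minus binding with excess unlabelled ligand. Radioligand displacement was detected by scintillation counting, and data were also reported as percent of control specific binding.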

In another assay the target is T2, receptors D4.4 (Homo sapiens, UniProt P21917).
T2 sequence (P21917 1-419): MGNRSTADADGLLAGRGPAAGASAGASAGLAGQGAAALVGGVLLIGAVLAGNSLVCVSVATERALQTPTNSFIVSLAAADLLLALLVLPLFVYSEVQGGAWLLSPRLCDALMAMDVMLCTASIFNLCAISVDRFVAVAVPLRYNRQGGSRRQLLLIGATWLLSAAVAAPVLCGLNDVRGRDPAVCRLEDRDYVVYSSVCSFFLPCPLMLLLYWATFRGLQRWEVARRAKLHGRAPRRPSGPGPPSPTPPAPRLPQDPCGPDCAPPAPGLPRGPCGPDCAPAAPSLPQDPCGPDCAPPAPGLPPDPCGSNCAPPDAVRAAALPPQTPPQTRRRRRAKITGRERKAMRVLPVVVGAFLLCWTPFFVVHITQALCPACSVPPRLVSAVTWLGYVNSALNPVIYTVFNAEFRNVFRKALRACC
Put plainly: Radioligand binding assay, dopaminergic D4 (D4.4) receptors. The following applies: test compound 1×10^−6 M. The source says: (§1) The specific ligand binding to the receptors is defined as the difference between the total binding and the non-specific binding determined in the presence of the excess of unlabelled ligand.
(§2) The results are expressed as a percent of control specific binding ((measured specific binding/control specific binding)×100) and as a percent inhibition of control specific binding (100−((measured specific binding/control specific binding)×100)) obtained in the presence of the test compounds. The specific ligand binding to the receptors is defined as the difference between the total binding and the nonspecific binding determined in the presence of an excess of unlabelled ligand. Scintillation counting was the method of detection of ligand binding. The IC50 values (concentration causing a half-maximal inhibition of control specific binding) were determined by non-linear regression analysis of the competition curves generated with mean replicate values using Hill equation curve fitting (Y=D+[(A−D)/(1+(C/C50)nH)], where Y=specific binding, D=minimum specific binding, A=maximum specific binding, C=compound concentration, C50=IC50, and nH=slope factor). This analysis was performed using a software developed at Cerep (Hill software) and validated by comparison with data generated by the commercial software SigmaPlot® 4.0 for Windows® (© 1997 by SPSS Inc.). The inhibition constants (Ki) were calculated using the Cheng Prusoff equation (Ki=IC50/(1+(L/KD)), where L=concentration of radioligand in the assay, and KD=affinity of the radioligand for the receptor). A scatchard plot was used to determine the Kd.
Experimental conditions for tests are given in Table 1, the results of tests for representative compounds are given in Tables 2a and 2b (receptors D2 and D3) and in Table 3 (receptors D4).

Another assay deals with T3, 5-HT7 receptor (Homo sapiens, UniProt P34969).
T3 construct: purchased PerkinElmer
Description: Radioligand binding assay, serotoninergic 5-HT7 receptors.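 Also: test compound at 1 µM.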 The following applies: binding assay result in %, Table 5a. In a few lines: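 Competition binding at human 5-HT7 receptors with a radioligand, detected by scintillation counting; non-specific binding was defined with excess unlabelled ligand. IC50 came from Hill-equation fits of competition curves, and Ki from Cheng–Prusoff using radioligand concentration and Scatchard-derived KD.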

A further assay has as its target T4, α2C adrenergic receptors (Homo sapiens, UniProt P18825).
T4 construct: expressed in transfected cells; host or cells: CHO cells
T4 sequence (P18825 1-462): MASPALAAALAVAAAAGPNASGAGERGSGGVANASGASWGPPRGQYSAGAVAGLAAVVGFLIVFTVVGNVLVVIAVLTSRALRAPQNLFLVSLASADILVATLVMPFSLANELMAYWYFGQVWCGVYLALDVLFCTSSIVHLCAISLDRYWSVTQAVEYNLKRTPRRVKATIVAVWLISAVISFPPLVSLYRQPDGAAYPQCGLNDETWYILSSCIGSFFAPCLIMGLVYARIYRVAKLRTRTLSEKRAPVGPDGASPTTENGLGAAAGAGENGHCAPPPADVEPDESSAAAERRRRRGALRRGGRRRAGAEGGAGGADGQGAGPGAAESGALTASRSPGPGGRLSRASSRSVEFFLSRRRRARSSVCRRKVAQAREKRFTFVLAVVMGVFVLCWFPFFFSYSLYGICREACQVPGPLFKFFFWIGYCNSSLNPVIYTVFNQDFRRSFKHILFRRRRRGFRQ
Description: Radioligand binding assay, adrenergic α2C receptors. The following applies: test compound 1×10^−6 M.
Text: as §1, §2
Experimental conditions for tests are given in Table 7, and results of tests for representative compounds are given in Tables 8 (α1 receptors) and in Tables 9 (α2C receptors).

T1 sequence (P50406 whole entry): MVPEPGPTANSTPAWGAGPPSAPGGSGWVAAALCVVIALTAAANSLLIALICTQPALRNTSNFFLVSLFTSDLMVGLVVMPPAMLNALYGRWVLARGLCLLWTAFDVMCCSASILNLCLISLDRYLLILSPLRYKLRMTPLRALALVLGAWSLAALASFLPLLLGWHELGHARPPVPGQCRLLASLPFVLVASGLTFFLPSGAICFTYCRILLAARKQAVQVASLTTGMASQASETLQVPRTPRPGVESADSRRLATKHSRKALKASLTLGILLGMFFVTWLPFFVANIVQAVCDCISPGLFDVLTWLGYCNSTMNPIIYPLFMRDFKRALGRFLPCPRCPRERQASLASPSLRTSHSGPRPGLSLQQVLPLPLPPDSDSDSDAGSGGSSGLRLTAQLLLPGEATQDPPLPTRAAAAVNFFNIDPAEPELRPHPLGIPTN
T3 sequence (P34969 whole entry): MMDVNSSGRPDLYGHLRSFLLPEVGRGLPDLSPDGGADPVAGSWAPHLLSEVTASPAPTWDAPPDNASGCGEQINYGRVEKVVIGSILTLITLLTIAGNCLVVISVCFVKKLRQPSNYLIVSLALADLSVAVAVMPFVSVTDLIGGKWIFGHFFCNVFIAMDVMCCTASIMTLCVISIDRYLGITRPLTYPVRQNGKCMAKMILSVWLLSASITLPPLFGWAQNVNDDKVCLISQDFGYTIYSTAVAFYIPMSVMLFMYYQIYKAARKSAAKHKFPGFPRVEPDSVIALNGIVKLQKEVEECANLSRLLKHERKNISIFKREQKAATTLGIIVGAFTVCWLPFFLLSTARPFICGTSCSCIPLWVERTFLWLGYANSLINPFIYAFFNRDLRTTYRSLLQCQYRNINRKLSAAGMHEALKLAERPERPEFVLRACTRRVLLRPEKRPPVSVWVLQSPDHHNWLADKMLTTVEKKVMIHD

As for `COc1cccc(S(=O)(=O)NCC2CN(CCCc3noc4cc(F)ccc34)C2)c1` [Compound 143, N-[[1-[3-(6-Fluoro-1,2-benzoxazol-3-yl)propyl]azetidin-3-yl]methyl]-3-methoxy-benzenesulphonamide], the inhibition at 1 µM was 78% on 5-HT6 receptor, 80% at receptors D4.4, 87% on 5-HT7 receptor and 78% at α2C adrenergic receptors.
Regarding `O=S(=O)(NCC1CN(CCOc2cccc3c2OCCO3)C1)c1cc2ccccc2o1` [Compound 186, N-[[1-[2-(2,3-Dihydro-1,4-benzodioxin-5-yloxy)ethyl]azetidin-3-yl]methyl]-benzofuran-2-sulphonamide], the inhibition at 1 µM was determined as 32% at 5-HT6 receptor, 55% at receptors D4.4, 97% at 5-HT7 receptor and 96% at α2C adrenergic receptors.
On to `O=S(=O)(N[C@H]1CCN(CCCc2noc3cc(F)ccc23)C1)c1ccc2cc(Cl)ccc2c1` [Compound 201, 6-Chloro-N-[(3S)-1-[3-(6-fluoro-1,2-benzoxazol-3-yl)propyl]pyrrolidin-3-yl]naphthalene-2-sulphonamide], for which the inhibition at 1 µM was determined as 94% on 5-HT6 receptor, 50% at receptors D4.4, 95% on 5-HT7 receptor and 89% on α2C adrenergic receptors. For the same molecule, the Ki on 5-HT6 receptor was determined as 79 nM.
As to `O=S(=O)(N[C@H]1CCN(CCCc2noc3cc(F)ccc23)C1)c1ccc2ccccc2c1` [Compound 207, N-[(3S)-1-[3-(6-Fluoro-1,2-benzoxazol-3-yl)propyl]pyrrolidin-3-yl]-naphthalene-2-sulphonamide], the inhibition at 1 µM at 5-HT6 receptor is 101%; on receptors D4.4, 85%; on 5-HT7 receptor it was 99%; at α2C adrenergic receptors it was 90%. Moreover, the Ki on 5-HT6 receptor is 7.7 nM.
In the case of `Cn1ccc2cc(S(=O)(=O)NC3CCN(CCCc4noc5cc(F)ccc45)C3)ccc21` (stereo not shown) [Compound 218, N-[1-[3-(6-Fluoro-1,2-benzoxazol-3-yl)propyl]pyrrolidin-3-yl]-1-methyl-indole-5-sulphonamide], the inhibition at 1 µM at 5-HT6 receptor worked out at 95%; on receptors D4.4, 86%; on 5-HT7 receptor it was 98%; on α2C adrenergic receptors, 94%.
`Cc1ccc2sc(S(=O)(=O)N[C@H]3CCN(CCCc4noc5cc(F)ccc45)C3)cc2c1` [Compound 229, N-[(3S)-1-[3-(6-Fluoro-1,2-benzoxazol-3-yl)propyl]pyrrolidin-3-yl]-5-methylbenzothiophene-2-sulphonamide]: the inhibition at 1 µM on 5-HT6 receptor was 98%; on receptors D4.4, 86%; on 5-HT7 receptor, 99%; on α2C adrenergic receptors, 98%. The Ki at 5-HT6 receptor stood at 43 nM.
As to `O=S(=O)(NCC1CCN(CCCc2noc3cc(F)ccc23)C1)c1ccc2cc(Cl)ccc2c1` (stereo not shown) [Compound 237, 6-Chloro-N-[[1-[3-(6-fluoro-1,2-benzoxazol-3-yl)propyl]pyrrolidin-3-yl]methyl]naphthalene-2-sulphonamide], the inhibition at 1 µM is 87% on 5-HT6 receptor, 48% on receptors D4.4, 96% on 5-HT7 receptor and 82% at α2C adrenergic receptors.
As for `Cc1c(S(=O)(=O)NCC2CCN(CCCc3noc4cc(F)ccc34)C2)sc2ccc(Cl)cc12` (stereo not shown) [Compound 238, 5-Chloro-N-[[1-[3-(6-fluoro-1,2-benzoxazol-3-yl)propyl]pyrrolidin-3-yl]methyl]-3-methyl-benzothiophene-2-sulphonamide], the inhibition at 1 µM at 5-HT6 receptor came to 96%; on receptors D4.4, 48%; at 5-HT7 receptor, 94%; on α2C adrenergic receptors, 94%. The Ki on 5-HT6 receptor was found to be 17 nM.
Turning to `O=S(=O)(NCC1CCN(CCCc2noc3cc(F)ccc23)C1)c1ccc(-c2ccccc2)cc1` (stereo not shown) [Compound 241, N-[[1-[3-(6-Fluoro-1,2-benzoxazol-3-yl)propyl]pyrrolidin-3-yl]methyl]-4-phenyl-benzenesulphonamide], the inhibition at 1 µM amounted to 68% at 5-HT6 receptor, 33% on receptors D4.4, 100% at 5-HT7 receptor and 87% at α2C adrenergic receptors.
With `O=S(=O)(NCC1CCN(CCOc2cccc3c2OCCO3)C1)c1ccc(C(F)(F)F)cc1` (stereo not shown) [Compound 293, N-[[1-[2-(2,3-Dihydro-1,4-benzodioxin-5-yloxy)ethyl]pyrrolidin-3-yl]methyl]-4-(trifluoromethyl)benzenesulphonamide], the inhibition at 1 µM at 5-HT6 receptor is 47%; on receptors D4.4 it was 35%; at 5-HT7 receptor, 90%; on α2C adrenergic receptors it was 95%.
The like results for `O=S(=O)(NCC1CCN(CCOc2cccc3c2OCCO3)C1)c1cccc(F)c1` (stereo not shown) [Compound 298, N-[[1-[2-(2,3-Dihydro-1,4-benzodioxin-5-yloxy)ethyl]pyrrolidin-3-yl]-methyl]-3-fluoro-benzenesulphonamide] were, in that order, 40%, 48%, 93% and 94%.
`O=S(=O)(NCC1CCN(CCOc2cccc3c2OCCO3)C1)c1ccc(F)cc1` (stereo not shown) [Compound 300, N-[[1-[2-(2,3-Dihydro-1,4-benzodioxin-5-yloxy)ethyl]pyrrolidin-3-yl]-methyl]-4-fluoro-benzenesulphonamide]: the inhibition at 1 µM at 5-HT6 receptor was 38%; at receptors D4.4, 52%; on 5-HT7 receptor, 90%; at α2C adrenergic receptors, 92%.
For `O=S(=O)(NCC1CCN(CCOc2cccc3c2OCCO3)C1)c1cccc(O)c1` (stereo not shown) [Compound 303, N-[[1-[2-(2,3-Dihydro-1,4-benzodioxin-5-yloxy)ethyl]pyrrolidin-3-yl]-methyl]-3-hydroxy-benzenesulphonamide], in that order: 48%, 39%, 98% and 100%.
Turning to `O=S(=O)(NCC1CCN(CCOc2cccc3c2OCCO3)C1)c1ccc(Br)cc1` (stereo not shown) [Compound 305, 4-Bromo-N-[[1-[2-(2,3-dihydro-1,4-benzodioxin-5-yloxy)ethyl]pyrrolidin-3-yl]methyl]benzenesulphonamide], the inhibition at 1 µM at 5-HT6 receptor was 52%; on receptors D4.4 it was 52%; at 5-HT7 receptor, 96%; on α2C adrenergic receptors it was 96%.
As for `O=S(=O)(NCC1CCN(CCOc2cccc3c2OCCO3)C1)c1ccc2c(c1)CCO2` (stereo not shown) [Compound 306, N-[[1-[2-(2,3-Dihydro-1,4-benzodioxin-5-yloxy)ethyl]pyrrolidin-3-yl]-methyl]-2,3-dihydrobenzofuran-5-sulphonamide], the inhibition at 1 µM on 5-HT6 receptor worked out at 45%; on receptors D4.4, 33%; on 5-HT7 receptor it was 94%; at α2C adrenergic receptors it was 98%.

By inhibition is commonly meant the change of the read-out against control, counted positive when it falls. The Ki is the equilibrium dissociation constant of an inhibitor or competing ligand from its target.
